Experimental data from US12662530B2, “Anti-ADM-antibodies binding to the free N-terminus for accelerated transition of ADM-Gly to bio-ADM in patients with ADM-Gly/ bio-ADM ratio above a threshold and combination with vitamin C” (SphingoTec GmbH, priority 2020, dated 2026).

Tested on: native PAM
Assay: ADM maturation activity (AMA) of native PAM in Li-Heparin plasma with antibody and varying L-ascorbate
Type: biochemical, human
Conditions: FIG. 15
Experimental: A serial antibody-dilution with concentrations of 0, 5, 10, 50, 100, 500 and 3000 μg/mL per well, respectively (in 20 μl) were pipetted into 96-well micro-titer plates. Then 160 μl PAM reaction buffer (100 mM Tris-HCl, 6.25 μM CuSO4, 62.5 μM amastatin, 250 μM leupeptin, 36 ng/mL ADM-Gly) with varying L-ascorbate concentrations was added to the wells and incubated for 15 min. Afterwards the reaction was started by addition of 20 μl of Li-Heparin plasma, containing native PAM Immediately after addition of plasma, 100 μl from each well were removed and inactivated by addition of EDTA (20 mM final concentration) to generate a t=0 minutes reaction point. Inactivated and non-inactivated samples were incubated for 40 minutes at 37° C. and the reaction in non-inactivated samples was stopped as described above. For quantification of produced ADM-NH2 the Sphingotest® bio-ADM Kit (Weber et al. 2017) was utilized according to manufacturer's manual. The ADM maturation activity (AMA) was calculated according to equation 1 (DF=dilution factor of sample matrix).

## HAM8101: humanized N-terminal anti-ADM antibody, heavy chain SEQ ID No. 35, light chain SEQ ID No. 36
100 μg/mL of HAM8101 in the amidation assay, Li-Heparin plasma
  increase of the bio-ADM formation of PAM: 40%
HAM8101 0-3000 μg/mL
  effect on the amidation for each ascorbate concentration assayed: concentration dependent positive effect on the amidation
